Test results: patent US20250026766A1, “Thiazolopyridyl Amide Derivatives as DNA Polymerase Theta Inhibitors” (BeiGene, Ltd., priority 2022, published 2025)

What follows are compounds tested against Pol Theta (1-894) (Homo sapiens (Human), UniProt O75417) (assay: Biochemical Pol Theta (1-894) ATPase IC50 assay (ADP-Glo, ssDNA substrate)). Conditions: ADP-Glo assay with ssDNA substrate, room temperature.
In short: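 His-tagged human Pol Theta 1-894 from Sf9 baculovirus cells, 2× enzyme solution at 12.5 nM, assayed with ssDNA substrate at room temperature in 40 mM Tris pH 7.5, 20 mM MgCl2, 1 mM DTT, 0.01% BSA, 0.05% Tween-20.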

Sequence of Pol Theta (1-894) (O75417 1-894): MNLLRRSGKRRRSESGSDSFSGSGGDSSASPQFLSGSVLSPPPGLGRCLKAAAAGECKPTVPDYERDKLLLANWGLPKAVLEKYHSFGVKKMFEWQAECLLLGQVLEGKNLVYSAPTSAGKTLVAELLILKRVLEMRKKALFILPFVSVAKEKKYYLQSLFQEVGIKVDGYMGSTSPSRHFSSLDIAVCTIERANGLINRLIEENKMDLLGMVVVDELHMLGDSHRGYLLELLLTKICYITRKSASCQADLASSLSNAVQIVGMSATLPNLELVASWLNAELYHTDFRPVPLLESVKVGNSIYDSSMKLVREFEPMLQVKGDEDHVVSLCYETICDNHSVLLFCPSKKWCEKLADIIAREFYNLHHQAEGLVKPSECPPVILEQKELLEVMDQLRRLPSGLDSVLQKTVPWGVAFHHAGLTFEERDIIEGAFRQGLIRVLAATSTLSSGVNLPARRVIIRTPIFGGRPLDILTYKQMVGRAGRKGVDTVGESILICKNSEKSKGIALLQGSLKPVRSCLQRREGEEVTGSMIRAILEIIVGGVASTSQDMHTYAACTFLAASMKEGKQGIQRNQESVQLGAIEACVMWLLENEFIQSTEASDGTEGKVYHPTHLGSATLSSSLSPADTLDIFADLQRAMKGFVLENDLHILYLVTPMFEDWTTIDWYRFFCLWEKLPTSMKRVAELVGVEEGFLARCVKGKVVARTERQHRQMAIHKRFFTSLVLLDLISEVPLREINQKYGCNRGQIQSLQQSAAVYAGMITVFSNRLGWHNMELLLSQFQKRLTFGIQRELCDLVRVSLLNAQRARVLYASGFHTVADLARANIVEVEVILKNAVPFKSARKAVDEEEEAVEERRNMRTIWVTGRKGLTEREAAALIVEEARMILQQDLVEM

| Compound | IC50 [nM] |
| --- | --- |
| CCNC(=O)c1ccc2nc(NC(=O)c3cnncc3-c3ccccc3OC)sc2n1 [Example 94, N-ethyl-2-(5-(2-methoxyphenyl)pyridazine-4-carboxamido)thiazolo[5,4-b]pyridine-5-carboxamide] | 29 |
| COc1ccccc1-c1cnncc1C(=O)Nc1nc2ccc(Oc3ccc(Cl)cc3)nc2s1 [Example 98, N-(5-(4-chlorophenoxy)thiazolo[5,4-b]pyridin-2-yl)-5-(2-methoxyphenyl)pyridazine-4-carboxamide] | 22 |
| COc1ccccc1-c1cnncc1C(=O)Nc1nc2ccc(-c3ccc(Cl)cc3C(F)(F)F)nc2s1 [Example 99, N-(5-(4-chloro-2-(trifluoromethyl)phenyl)thiazolo[5,4-b]pyridin-2-yl)-5-(2-methoxyphenyl)pyridazine-4-carboxamide] | 66 |
| COc1cccc(F)c1-c1cc(C)ncc1C(=O)Nc1nc2ccc(-c3ccc(C#N)cc3)nc2s1 [Example 104, N-(5-(4-cyanophenyl)thiazolo[5,4-b]pyridin-2-yl)-4-(2-fluoro-6-methoxyphenyl)-6-methylnicotinamide] | 6.5 |
| CCOc1ccc(C#N)cc1-c1cc(C)ncc1C(=O)Nc1nc2ccc(-c3ccc(C#N)cc3)nc2s1 [Example 105, 4-(5-cyano-2-ethoxyphenyl)-N-(5-(4-cyanophenyl)thiazolo[5,4-b]pyridin-2-yl)-6-methylnicotinamide] | 16 |
| COc1ccc(C#N)cc1-c1cc(C)ncc1C(=O)Nc1nc2ccc(CCc3ccc(Cl)cc3)nc2s1 [Example 107, N-(5-(4-chlorophenethyl)thiazolo[5,4-b]pyridin-2-yl)-4-(5-cyano-2-methoxyphenyl)-6-methylnicotinamide] | 17 |
| COc1ccc(C#N)cc1-c1cc(C)ncc1C(=O)Nc1nc2ccc(-c3ccc(C(N)=O)c(C)c3)nc2s1 [Example 110, N-(5-(4-carbamoyl-3-methylphenyl)thiazolo[5,4-b]pyridin-2-yl)-4-(5-cyano-2-methoxyphenyl)-6-methylnicotinamide] | 5.8 |
| COc1ccccc1-c1cnncc1C(=O)Nc1nc2ccc(C(=O)NC3CCOCC3)nc2s1 [Example 113, 2-(5-(2-methoxyphenyl)pyridazine-4-carboxamido)-N-(tetrahydro-2H-pyran-4-yl)thiazolo[5,4-b]pyridine-5-carboxamide] | 167 |
| COc1ccc(C#N)cc1-c1cc(C)ncc1C(=O)Nc1nc2ccc(-c3ccc(CC#N)cc3)nc2s1 [Example 116, 4-(5-cyano-2-methoxyphenyl)-N-(5-(4-(cyanomethyl)phenyl)thiazolo[5,4-b]pyridin-2-yl)-6-methylnicotinamide] | 5.6 |
| COc1ccccc1-c1cnncc1C(=O)Nc1nc2ccc(-c3ccc(Cl)cc3Cl)nc2s1 [Example 117, N-(5-(2,4-dichlorophenyl)thiazolo[5,4-b]pyridin-2-yl)-5-(2-methoxyphenyl)pyridazine-4-carboxamide] | 12 |
| COc1ccccc1-c1cnncc1C(=O)Nc1nc2ccc(OCC3CCCO3)nc2s1 (stereo not shown) [Example 118, 5-(2-methoxyphenyl)-N-(5-((tetrahydrofuran-2-yl)methoxy)thiazolo[5,4-b]pyridin-2-yl)pyridazine-4-carboxamide] | 17 |
| COc1cc(C#N)ccc1-c1ccc2nc(NC(=O)c3cnncc3-c3ccccc3OC)sc2n1 [Example 119, N-(5-(4-cyano-2-methoxyphenyl)thiazolo[5,4-b]pyridin-2-yl)-5-(2-methoxyphenyl)pyridazine-4-carboxamide] | 5.2 |
| COc1ccc(C#N)cc1-c1cc(C)ncc1C(=O)Nc1nc2ccc(-c3ccc(OCCO)cc3)nc2s1 [Example 122, 4-(5-cyano-2-methoxyphenyl)-N-(5-(4-(2-hydroxyethoxy)phenyl)thiazolo[5,4-b]pyridin-2-yl)-6-methylnicotinamide] | 14 |
| COc1ccccc1-c1cnncc1C(=O)Nc1nc2ccc(C(=O)N3CCOCC3)nc2s1 [Example 124, 5-(2-methoxyphenyl)-N-(5-(morpholine-4-carbonyl)thiazolo[5,4-b]pyridin-2-yl)pyridazine-4-carboxamide] | 44 |

The remaining compounds from weak to strong by IC50, led by results:

| IC50 [nM] | Compound |
| --- | --- |
| 99 | COc1ccccc1-c1cnncc1C(=O)Nc1nc2ccc(OC3CCCC3)nc2s1 [Example 114, N-(5-(cyclopentyloxy)thiazolo[5,4-b]pyridin-2-yl)-5-(2-methoxyphenyl)pyridazine-4-carboxamide] |
| 83 | COc1ccccc1-c1cnncc1C(=O)Nc1nc2ccc(-c3ccc(C(=O)N4CCOCC4)cc3)nc2s1 [Example 103, 5-(2-methoxyphenyl)-N-(5-(4-(morpholine-4-carbonyl)phenyl)thiazolo[5,4-b]pyridin-2-yl)pyridazine-4-carboxamide] |
| 72 | CCOc1ccc2nc(NC(=O)c3cnncc3-c3ccccc3OC)sc2n1 [Example 95, N-(5-ethoxythiazolo[5,4-b]pyridin-2-yl)-5-(2-methoxyphenyl)pyridazine-4-carboxamide] |
| 63 | COc1ccccc1-c1cnncc1C(=O)Nc1nc2ccc(-c3ccc(C(=O)NC(C)C)cc3)nc2s1 [Example 102, N-(5-(4-(isopropylcarbamoyl)phenyl)thiazolo[5,4-b]pyridin-2-yl)-5-(2-methoxyphenyl)pyridazine-4-carboxamide] |
| 60 | COc1cc(Cl)ccc1-c1ccc2nc(NC(=O)c3cnncc3-c3ccccc3OC)sc2n1 [Example 96, N-(5-(4-chloro-2-methoxyphenyl)thiazolo[5,4-b]pyridin-2-yl)-5-(2-methoxyphenyl)pyridazine-4-carboxamide] |
| 60 | COc1ccccc1-c1cnncc1C(=O)Nc1nc2ccc(C(=O)NCCO)nc2s1 [Example 112, N-(2-hydroxyethyl)-2-(5-(2-methoxyphenyl)pyridazine-4-carboxamido)thiazolo[5,4-b]pyridine-5-carboxamide] |
| 35 | COc1ccccc1-c1cnncc1C(=O)Nc1nc2ccc(-c3c(C)cc(Cl)cc3C)nc2s1 [Example 101, N-(5-(4-chloro-2,6-dimethylphenyl)thiazolo[5,4-b]pyridin-2-yl)-5-(2-methoxyphenyl)pyridazine-4-carboxamide] |
| 29 | COc1ccccc1-c1cnncc1C(=O)Nc1nc2ccc(-c3ccc(Cl)cc3F)nc2s1 [Example 100, N-(5-(4-chloro-2-fluorophenyl)thiazolo[5,4-b]pyridin-2-yl)-5-(2-methoxyphenyl)pyridazine-4-carboxamide] |
| 27 | COc1ccccc1-c1cnncc1C(=O)Nc1nc2ccc(-c3ccc(Cl)cc3C)nc2s1 [Example 97, N-(5-(4-chloro-2-methylphenyl)thiazolo[5,4-b]pyridin-2-yl)-5-(2-methoxyphenyl)pyridazine-4-carboxamide] |
| 27 | COCCOc1ccc(-c2ccc3nc(NC(=O)c4cnc(C)cc4-c4cc(C#N)ccc4OC)sc3n2)cc1 [Example 123, 4-(5-cyano-2-methoxyphenyl)-N-(5-(4-(2-methoxyethoxy)phenyl)thiazolo[5,4-b]pyridin-2-yl)-6-methylnicotinamide] |
| 26 | Cc1cc(-c2cc(C#N)ccc2C)c(C(=O)Nc2nc3ccc(-c4ccc(C#N)cc4)nc3s2)cn1 [Example 106, 4-(5-cyano-2-methylphenyl)-N-(5-(4-cyanophenyl)thiazolo[5,4-b]pyridin-2-yl)-6-methylnicotinamide] |
| 20 | COc1ccccc1-c1cnncc1C(=O)Nc1nc2ccc(-c3ccc(N4CCCC4=O)cc3)nc2s1 [Example 93, 5-(2-methoxyphenyl)-N-(5-(4-(2-oxopyrrolidin-1-yl)phenyl)thiazolo[5,4-b]pyridin-2-yl)pyridazine-4-carboxamide] |
| 19 | CCNC(=O)c1ccc(-c2ccc3nc(NC(=O)c4cnncc4-c4ccccc4OC)sc3n2)cc1 [Example 108, N-(5-(4-(ethylcarbamoyl)phenyl)thiazolo[5,4-b]pyridin-2-yl)-5-(2-methoxyphenyl)pyridazine-4-carboxamide] |
| 16 | COc1ccccc1-c1cnncc1C(=O)Nc1nc2ccc(-c3ccc(C(=O)N(C)C)cc3)nc2s1 [Example 92, N-(5-(4-(dimethylcarbamoyl)phenyl)thiazolo[5,4-b]pyridin-2-yl)-5-(2-methoxyphenyl)pyridazine-4-carboxamide] |
| 11 | COc1ccccc1-c1cnncc1C(=O)Nc1nc2ccc(-c3ccc(NC(=O)CO)cc3)nc2s1 [Example 111, N-(5-(4-(2-hydroxyacetamido)phenyl)thiazolo[5,4-b]pyridin-2-yl)-5-(2-methoxyphenyl)pyridazine-4-carboxamide] |
| 7.9 | Cc1cc(-c2ccc(=O)n(C)c2C)c(C(=O)Nc2nc3ccc(-c4ccc(C#N)cc4)nc3s2)cn1 [Example 120, N-(5-(4-cyanophenyl)thiazolo[5,4-b]pyridin-2-yl)-1,2,6′-trimethyl-6-oxo-1,6-dihydro-[3,4′-bipyridine]-3′-carboxamide] |
| 7.1 | COc1ccc(C#N)cc1-c1cc(C)ncc1C(=O)Nc1nc2ccc(-c3ccc(CNC(C)=O)cc3)nc2s1 [Example 115, N-(5-(4-(acetamidomethyl)phenyl)thiazolo[5,4-b]pyridin-2-yl)-4-(5-cyano-2-methoxyphenyl)-6-methylnicotinamide] |
| 4.9 | COc1ccccc1-c1cnncc1C(=O)Nc1nc2ccc(-c3ccc(C#N)cc3C)nc2s1 [Example 121, N-(5-(4-cyano-2-methylphenyl)thiazolo[5,4-b]pyridin-2-yl)-5-(2-methoxyphenyl)pyridazine-4-carboxamide] |
| 4.7 | COc1ccc(C#N)cc1-c1cc(CO)ncc1C(=O)Nc1nc2ccc(-c3ccc(C#N)cc3)nc2s1 [Example 109, 4-(5-cyano-2-methoxyphenyl)-N-(5-(4-cyanophenyl)thiazolo[5,4-b]pyridin-2-yl)-6-(hydroxymethyl)nicotinamide] |
| 4.1 | COc1ccc(C#N)cc1-c1cc(C)ncc1C(=O)Nc1nc2ccc(-c3ccc(NS(C)(=O)=O)c(F)c3)nc2s1 [Example 90, 4-(5-cyano-2-methoxyphenyl)-N-(5-(3-fluoro-4-(methylsulfonamido)phenyl)thiazolo[5,4-b]pyridin-2-yl)-6-methylnicotinamide] |
